From the supplement of paper PMC10307832

Tests used:
Assay in all cases: relative viability (nuclei count vs DMSO), 5 days (fraction); higher = more cells survive
Bortezomib + Dasatinib = compound: CC(C)C[C@H](NC(=O)[C@H](Cc1ccccc1)NC(=O)c1cnccn1)B(O)O [Bortezomib] + Cc1nc(Nc2ncc(C(=O)Nc3c(C)cccc3Cl)s2)cc(N2CCN(CCO)CC2)n1 [Dasatinib] (partner 0.075 µM)
Outline: (§1)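 Nuclei were stained with Hoechst during a one-step fixation (final 0.05% Triton X-100, 1% formaldehyde, 1 ug/ml Hoechst) carried out 5 days after dosing, then counted on 4× images. The cells, lung cancer lines in 1536-well plates, had been dosed by pin tool the day after seeding with one drug alone or a fixed anchor-drug dose plus five library-drug doses (not always all listed) in √10 steps. Relative viability is the nuclei count in treated wells divided by that in vehicle wells, and each value is the median of duplicate plates.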

[1] = compound: CC1=CC(=NN1)NC2=CC(=NC(=N2)/C=C/C3=CC=CC=C3)N4CCN(CC4)C + CS(=O)(=O)N1CCN(Cc2cc3nc(-c4cccc5[nH]ncc45)nc(N4CCOCC4)c3s2)CC1 [Pictilisib] (partner 1 µM)
Outline: as §1

[2] = compound: CC1=CC(=NN1)NC2=CC(=NC(=N2)/C=C/C3=CC=CC=C3)N4CCN(CC4)C + Nc1ncn([C@H]2C[C@H](O)[C@@H](CO)O2)c(=O)n1 [Decitabine] (partner 2 µM)
Outline: as §1

Obatoclax + Olaparib = compound: COC1=CC(c2cc3ccccc3[nH]2)=N/C1=C\c1[nH]c(C)cc1C [Obatoclax] + O=C(c1cc(Cc2n[nH]c(=O)c3ccccc23)ccc1F)N1CCN(C(=O)C2CC2)CC1 [Olaparib] (partner 8 µM)
Outline: as §1

Row | Cell Line | relative viability (Bortezomib + Dasatinib; first compound 0.0002 µM) | relative viability (Bortezomib + Dasatinib; first compound 0.000632 µM) | relative viability (Bortezomib + Dasatinib; first compound 0.002 µM) | relative viability (Bortezomib + Dasatinib; first compound 0.006325 µM) | relative viability (Bortezomib + Dasatinib; first compound 0.02 µM) | relative viability ([1]; first compound 0.08 µM) | relative viability ([1]; first compound 0.253 µM) | relative viability ([1]; first compound 0.8 µM) | relative viability ([1]; first compound 2.53 µM) | relative viability ([1]; first compound 8 µM) | relative viability ([2]; first compound 0.08 µM) | relative viability ([2]; first compound 0.253 µM) | relative viability ([2]; first compound 0.8 µM) | relative viability ([2]; first compound 2.53 µM) | relative viability ([2]; first compound 8 µM) | relative viability (Obatoclax + Olaparib; first compound 0.01 µM) | relative viability (Obatoclax + Olaparib; first compound 0.03162 µM) | relative viability (Obatoclax + Olaparib; first compound 0.1 µM) | relative viability (Obatoclax + Olaparib; first compound 0.3162 µM) | relative viability (Obatoclax + Olaparib; first compound 1 µM)
1 | ChaGo-K-1 | 0.535 | 0.539 | 0.558 | 0.207 | 0.13 | 0.605 | 0.912 | 1 | 0.292 | 0.271 | 0.509 | 0.587 | 0.465 | 0.383 | 0.21 | 0.4 | 0.439 | 0.391 | 0.382 | 0.41
2 | EBC-1 |  |  |  |  |  | 0.394 | 0.451 | 0.392 | 0.143 | 0.0897 |  |  |  |  |  | 0.632 | 0.765 | 0.642 | 0.583 | 0.269
3 | EKVX | 0.544 | 0.526 | 0.707 | 0.397 | 0.185 | 0.438 | 0.478 | 0.488 | 0.31 | 0.115 | 0.299 | 0.297 | 0.374 | 0.331 | 0.152 | 0.842 |  | 0.966 | 0.888 | 0.648
4 | EMC-BAC-2 | 0.313 | 0.318 | 0.494 | 0.157 | 0.188 | 0.507 | 0.589 | 0.468 | 0.325 | 0.154 | 0.989 | 0.91 | 0.946 | 0.689 | 0.282 | 0.491 | 0.514 | 0.418 | 0.478 | 0.43
5 | EPLC-272H | 0.342 | 0.192 | 0.277 | 0.0803 | 0.0618 | 0.286 | 0.286 | 0.31 | 0.0769 | 0.152 | 0.345 | 0.373 | 0.36 | 0.245 | 0.163 | 0.796 | 0.889 | 0.756 | 0.263 | 0.215
